Data published in paper PMC7892554 (Scientific Reports, 2021).
“Also recorded” adds a separate entry of the source. Where two headings read alike, the source gives them in different places. Positions of bridges follow the written chain, without caps; N, C: chain ends. Residues, ends and D or L forms follow the SMILES beside them.

Assays:
[1] = tested on: M. tuberculosis H37Rv; design: species or system BALB/c mice; settings: mouse, in vivo
[2] = in vivo; settings: male, BALB/c, mouse, iv, 33 mg/kg
[3] = mouse, in vivo, iv, 33 mg/kg
[4] = tested on: M. tuberculosis H37Rv infected mice; type: in vivo, BALB/c mice
[5] = tested on: M. smegmatis; type: cell-based, Mycobacterium smegmatis mc^2155
[6] = in vivo; cited from earlier work

Compound: CC[C@H](C)[C@@H]1NC(=O)[C@H](CO)NC(=O)[C@H](CCCCN)NC(=O)[C@@H]2CSSC[C@@H](C(=O)N[C@@H](Cc3ccc(O)cc3)C(=O)O)NC(=O)[C@H](CCCCN)NC(=O)[C@@H]3CSSC[C@H](NC(=O)[C@H](CCC(N)=O)NC(=O)[C@H]([C@@H](C)CC)NC(=O)[C@H](CC(=O)O)NC(=O)[C@H](CC(=O)O)NC(=O)[C@H](CCC(=O)O)NC(=O)[C@H](CO)NC(=O)[C@H](Cc4c[nH]c5ccccc45)NC(=O)[C@@H]4CCCN4C(=O)CNC(=O)[C@H](CC(N)=O)NC(=O)[C@@H](NC(=O)CNC(=O)[C@H](Cc4ccccc4)NC(=O)CN)CSSC[C@H](NC(=O)[C@H](Cc4ccc(O)cc4)NC(=O)CNC(=O)CNC(=O)[C@H](CCCCN)NC(=O)[C@H](Cc4ccc(O)cc4)NC(=O)CNC(=O)[C@H](CCCCN)NC1=O)C(=O)N[C@@H](C)C(=O)N[C@@H](CCCNC(=N)N)C(=O)NCC(=O)NCC(=O)N[C@@H](Cc1ccccc1)C(=O)N[C@@H](C(C)C)C(=O)N3)C(=O)N[C@@H](Cc1c[nH]cn1)C(=O)N[C@@H](CC(N)=O)C(=O)N[C@@H](Cc1c[nH]cn1)C(=O)N2 [NZX] (H-GFGCNGPWSEDDIQCHNHCKSIKGYKGGYCARGGFVCKCY-OH; disulfide 4-30, 15-37, 19-39)
- Bacterial (CFU) reduction compared to the untreated control [1]: 75%
- Cmax [2]: 61 µg/mL
- half-life [2]: 42 min
- NZX in the circulation after 240 min [3]: not detected
- Lung tissue destruction / inflammatory score (perivascular, peribronchiolar and alveolar infiltration) ([4]; mouse, in vivo): decreased tissue destruction
- Frequency at which resistant mutants emerge [5]: < 10^–9
- Resistant mutants detected [5]: did not detect any resistant mutants

Compound: CC[C@@H](CO)NCCN[C@@H](CC)CO [ethambutol]
- Bacterial (CFU) reduction compared to the untreated control [1]: 79%
- Lung tissue destruction / inflammatory score (perivascular, peribronchiolar and alveolar infiltration) ([4]; n = 4–5): more severe tissue destruction

Compound: NNC(=O)c1ccncc1 [isoniazid]
- Bacterial (CFU) reduction compared to the untreated control [1]: 92%
- Lung tissue destruction / inflammatory score (perivascular, peribronchiolar and alveolar infiltration) ([4]; n = 4–5): decreased tissue destruction; also recorded: preserved alveolar structure best

Compound: plectasin
- Terminal serum elimination half-life [6]: 51 min
